pIC50: −log10 of the molar value.
Key:
Rattus norvegicus = experiment: Dose normalized AUC in Sprague-Dawley rat at 2 mg/kg, po administered as gastric bolus by LC/MS/MS analysis; format: ADME, organism-based; settings: in vivo
[1] = molecular target: T1, Serine/threonine-protein kinase TNNI3K (Homo sapiens, UniProt Q59H18); experiment: Displacement of 5-({[2-({[3-({4-[(5-hydroxy-2-methylphenyl)amino]-2-pyrimidinyl}amino)phenyl]carbonyl}amino)-ethyl]amino}carbonyl)-2-(6-hydroxy-3-oxo-3H-xanthen-9-yl)benzoic acid from full length human TNNI3K expressed in baculovirus system incubated for 60 mins by fluorescence polarization assay
T1 sequence (Q59H18 whole entry): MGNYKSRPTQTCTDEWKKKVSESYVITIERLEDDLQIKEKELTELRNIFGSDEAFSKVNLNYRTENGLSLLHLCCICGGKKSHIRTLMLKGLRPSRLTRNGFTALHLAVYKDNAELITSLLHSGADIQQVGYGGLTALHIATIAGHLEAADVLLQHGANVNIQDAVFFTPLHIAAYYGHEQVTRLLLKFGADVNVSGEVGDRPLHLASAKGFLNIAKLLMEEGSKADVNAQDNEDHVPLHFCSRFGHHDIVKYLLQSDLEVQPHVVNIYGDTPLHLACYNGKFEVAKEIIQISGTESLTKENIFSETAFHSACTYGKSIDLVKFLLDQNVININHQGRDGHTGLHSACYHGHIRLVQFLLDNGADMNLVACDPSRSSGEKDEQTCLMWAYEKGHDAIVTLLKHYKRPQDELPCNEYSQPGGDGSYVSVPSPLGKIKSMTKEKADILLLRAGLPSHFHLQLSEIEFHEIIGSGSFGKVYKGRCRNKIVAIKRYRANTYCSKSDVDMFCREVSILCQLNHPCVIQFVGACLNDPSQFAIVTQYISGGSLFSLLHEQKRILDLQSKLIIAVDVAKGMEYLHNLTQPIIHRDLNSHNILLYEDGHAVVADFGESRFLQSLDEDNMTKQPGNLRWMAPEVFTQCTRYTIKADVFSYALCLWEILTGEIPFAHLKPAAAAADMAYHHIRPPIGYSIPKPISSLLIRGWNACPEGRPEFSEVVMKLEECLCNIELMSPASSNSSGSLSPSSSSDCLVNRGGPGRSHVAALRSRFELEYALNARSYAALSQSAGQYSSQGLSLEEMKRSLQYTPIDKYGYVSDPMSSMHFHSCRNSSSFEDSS

[2] = molecular target: Serine/threonine-protein kinase B-raf (Homo sapiens, UniProt P15056, V600E); experiment: Inhibition of full-length His6-tagged BRAF V600E mutant (2 to 766 residues) (unknown origin) expressed in baculovirus system by B-Raf accelerated MEK ATPase assay
[3] = molecular target: T1, Serine/threonine-protein kinase TNNI3K; experiment: Inhibition of human myc-tagged TNNI3K autophosphorylation overexpressed in HEKMSR2 cells incubated for 30 mins by time resolved fluorescence assay; format: cell-based
[4] = Cmax in Sprague-Dawley rat at 2 mg/kg, po administered as gastric bolus by LC/MS/MS analysis; format: ADME, organism-based; set-up: dose 2 mg/kg, route oral; settings: in vivo
[5] = Fraction unbound in Sprague-Dawley rat plasma at 2 mg/kg, po administered as gastric bolus by LC/MS/MS analysis; format: ADME, organism-based
[6] = Half life in Sprague-Dawley rat at 2 mg/kg, po administered as gastric bolus by LC/MS/MS analysis; format: ADME, organism-based; settings: in vivo

Serine/threonine-protein kinase B-raf, sequence (P15056 2-766 V600E limits assumed): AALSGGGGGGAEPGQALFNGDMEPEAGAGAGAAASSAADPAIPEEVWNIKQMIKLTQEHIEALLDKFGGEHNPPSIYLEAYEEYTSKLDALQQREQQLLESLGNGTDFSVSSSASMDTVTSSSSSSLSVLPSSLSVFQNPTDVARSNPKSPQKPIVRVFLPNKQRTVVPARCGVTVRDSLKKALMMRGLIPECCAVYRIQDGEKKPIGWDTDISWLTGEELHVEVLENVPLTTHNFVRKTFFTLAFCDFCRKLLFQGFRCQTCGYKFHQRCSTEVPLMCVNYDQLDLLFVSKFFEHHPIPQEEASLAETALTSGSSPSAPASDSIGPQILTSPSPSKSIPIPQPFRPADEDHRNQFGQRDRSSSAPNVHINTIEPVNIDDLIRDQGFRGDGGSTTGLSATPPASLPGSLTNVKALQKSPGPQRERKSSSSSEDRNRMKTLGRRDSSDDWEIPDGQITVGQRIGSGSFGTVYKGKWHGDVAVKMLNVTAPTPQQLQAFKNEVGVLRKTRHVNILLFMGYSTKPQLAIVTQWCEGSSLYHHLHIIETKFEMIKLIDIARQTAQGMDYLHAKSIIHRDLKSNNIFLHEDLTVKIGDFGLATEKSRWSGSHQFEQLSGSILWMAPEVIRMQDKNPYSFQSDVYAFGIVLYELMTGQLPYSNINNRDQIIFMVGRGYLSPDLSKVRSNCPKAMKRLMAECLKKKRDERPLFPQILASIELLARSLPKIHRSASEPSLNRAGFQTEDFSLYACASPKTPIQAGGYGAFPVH

`CNS(=O)(=O)c1ccc(N(C)C)c(Nc2ncnc3[nH]ccc23)c1` gave an AUC/dose (Rattus norvegicus) of 0.59 kg·h/L.

In the case of `CNS(=O)(=O)c1ccc(N(C)C)c(Nc2ncnc3ccc(OC)cc23)c1`, the pIC50 [1] was 7.10 and the pIC50 [2] was 6.00.

`CNc1ccc2c(Nc3cc(S(=O)(=O)NC)ccc3N(C)C)ncnc2c1` gave a pIC50 [1] of 7.40 and a pIC50 [2] of 5.00.

With `CNc1ccc2ncnc(Nc3cc(S(=O)(=O)NC)ccc3N(C)C)c2c1` the pIC50 [1] was 7.30 and the pIC50 [2] was 6.00.

Molecule `CNS(=O)(=O)c1ccc(OCC(F)(F)F)c(Nc2ncnc3cc(OC)cc(OC)c23)c1` has a pIC50 [1] of over 8.00, an AUC/dose (Rattus norvegicus) of 1.4 kg·h/L and a pIC50 [3] of 7.89. The pIC50 [2] was 7.30.

With `CNS(=O)(=O)c1ccc(OCC(F)(F)F)c(Nc2ncnc3cc(OCCCN4CCOCC4)ccc23)c1` the pIC50 [1] was 7.89, the AUC/dose (Rattus norvegicus) was 0 kg·h/L and the pIC50 [3] was 7.10. It also gave a pIC50 [2] of 5.89.

Work on `CNS(=O)(=O)c1ccc(N(C)C)c(Nc2ncnc3ccn(C)c23)c1` yielded a pIC50 [1] of 7.80, an AUC/dose (Rattus norvegicus) of 0.02 kg·h/L and a pIC50 [3] of 7.30. For the same molecule, the pIC50 [2] was 6.89.

`CNS(=O)(=O)c1ccc(OCC(F)(F)F)c(Nc2ncnc3cc(OC)c(OC)c(OC)c23)c1` gave a pIC50 [1] of over 8.00, an AUC/dose (Rattus norvegicus) of 0.24 kg·h/L and a pIC50 [3] of 7.20. It also gave a pIC50 [2] of 7.10.

Work on `CNS(=O)(=O)c1ccc(N(C)C)c(Nc2ncnc3ccc(N)cc23)c1` yielded a pIC50 [1] of 7.49 and a pIC50 [2] of 6.20.

Molecule `CNS(=O)(=O)c1ccc(N(C)C)c(Nc2ncnc3ccccc23)c1` has a pIC50 [1] of 6.70 and a pIC50 [2] of 6.60.

Molecule `CNS(=O)(=O)c1ccc(OCC(F)(F)F)c(Nc2ncnc3cc(OCCCOC)ccc23)c1` has a pIC50 [1] of 7.60, an AUC/dose (Rattus norvegicus) of 0.07 kg·h/L and a pIC50 [3] of 6.49. The pIC50 [2] was 6.80.

With `CNS(=O)(=O)c1ccc(N(C)C)c(Nc2ncnc3ccsc23)c1` the pIC50 [1] was 6.70 and the pIC50 [2] was 6.00.

With `CNS(=O)(=O)c1ccc(OCC(F)(F)F)c(Nc2ncnc3cc(OC)c(OC)cc23)c1` the pIC50 [1] was 7.60, the AUC/dose (Rattus norvegicus) was 1.9 kg·h/L and the pIC50 [3] was 6.80. For the same molecule, the pIC50 [2] was 6.89.

With `CNS(=O)(=O)c1ccc(OCC(F)(F)F)c(Nc2ncnc3cc(OC(C)C)c(OC)cc23)c1` the pIC50 [1] was 6.89 and the pIC50 [2] was 4.49.

Molecule `CNS(=O)(=O)c1ccc(N(C)C)c(Nc2ncnc3cc(N)ccc23)c1` has a pIC50 [1] of 7.20 and a pIC50 [2] of 5.40.

In the case of `CNS(=O)(=O)c1ccc(N2CCOCC2)c(Nc2ncnc3[nH]cc(Cl)c23)c1`, the pIC50 [1] was over 8.00 and the pIC50 [2] was 9.22.

Work on `CNS(=O)(=O)c1ccc(N(C)C)c(Nc2ncnc3cc(OC)cc(OC)c23)c1` yielded a pIC50 [1] of over 8.00, an AUC/dose (Rattus norvegicus) of 0.04 kg·h/L and a pIC50 [3] of 8.00. The pIC50 [2] was 7.10.

In the case of `CNS(=O)(=O)c1ccc(N(C)C)c(Nc2ncnc3cc(OCCCOC)ccc23)c1`, the pIC50 [1] was over 8.00, the AUC/dose (Rattus norvegicus) was 0.03 kg·h/L and the pIC50 [3] was 7.60. The pIC50 [2] was 6.10.

Work on `CNS(=O)(=O)c1ccc(N(C)C)c(Nc2ncnc3cc(OCCCN4CCOCC4)ccc23)c1` yielded a pIC50 [1] of over 8.00, an AUC/dose (Rattus norvegicus) of 0.02 kg·h/L and a pIC50 [3] of 7.60. It also gave a pIC50 [2] of 5.60.

In the case of `CCOc1cc2ncnc(Nc3cc(S(=O)(=O)NC)ccc3OCC(F)(F)F)c2cc1OC`, the pIC50 [1] was 7.89, the AUC/dose (Rattus norvegicus) was 1.7 kg·h/L and the pIC50 [3] was 7.30. The pIC50 [2] was 7.00.

`CNS(=O)(=O)c1ccc(N(C)C)c(Nc2ncnc3cc(OC)c(OC)cc23)c1` gave a Cmax [4] of 130 ng/mL, a pIC50 [1] of 7.60 and an AUC/dose (Rattus norvegicus) of 0.18 kg·h/L. It also gave a fraction unbound [5] of 0.202, a half-life [6] of 3.6 h and a pIC50 [3] of 7.00. For the same molecule, the pIC50 [2] was 6.00.

Molecule `CNS(=O)(=O)c1ccc(N(C)C)c(Nc2ncnc3cc[nH]c23)c1` has a pIC50 [1] of 7.60, an AUC/dose (Rattus norvegicus) of 0.01 kg·h/L and a pIC50 [3] of 6.30. The pIC50 [2] was 6.60.

Source: ChEMBL document CHEMBL3813650, “GSK114: A selective inhibitor for elucidating the biological role of TNNI3K” (Bioorg Med Chem Lett, 2016)
